These results are taken from ChEMBL document CHEMBL3301546, “MMV Malaria Box yeast growth screening”.

What all share (assay type): functional
Assay [1] concerns Saccharomyces cerevisiae. In words: (§1) MMV: Growth assays were conducted using the prototrophic S. cerevisiae strain JHY222. Each MMV compound (0.1 mM) was tested in rich media containing dextrose as a carbon source (Yeast Extract, Peptone, Dextrose; YPD). The growth rate in the presence of each MMV compound was calculated as follows: (i) the first 10 OD readings were averaged and subtracted from all OD readings of the corresponding curve to set the baseline of the growth curve to zero, and (ii) the area under the curve (AUC) was then calculated as the sum of all OD readings. […] A relative growth value was calculated as follows: AUC(DRUG) - AUC(DMSO)/AUC(DMSO); where AUC(DMSO) represents growth measured in a DMSO control well that was on the same microtiter plate of the drug-treated culture.

For assay [2], the system named is Saccharomyces cerevisiae. The description is as §1, with “minimal” for “rich”, “ethanol and glycerol” for “dextrose”, “as” for “as a”, “sources” for “source”, “Nitrogen Base, Ethanol, Glycerol; YNBEG).” for “Extract, Peptone, Dextrose; YPD).”.
For assay [3], the system named is Saccharomyces cerevisiae. The assay is described as §1, with “minimal” for “rich”, “Nitrogen Base,” for “Extract, Peptone,”, “YNBD).” for “YPD).”.

Take `Oc1c(C(Nc2ccccn2)c2cccc(Oc3ccccc3)c2)ccc2cccnc12` (stereo not given): the results for the “Relative Growth” value in the assay with Saccharomyces cerevisiae [1], in the assay on Saccharomyces cerevisiae [2] and in the assay with Saccharomyces cerevisiae [3] were -0.9969, -0.1371 and 0.0038, respectively.
For `COCCn1c(C)nc2ccccc2c1=O` the same measures were -0.0038, -0.2443 and 0.0485.
For `CC(C)(C)c1ccc(C(=O)Nc2nc3ccccc3s2)cc1` the same measures were -0.132, -0.4045 and -0.0029.
On to `O=C(CSc1ccc2nnc(-c3cccc(F)c3)n2n1)Nc1ccc2c(c1)OCO2`, for which the entries for the “Relative Growth” value in the assay with Saccharomyces cerevisiae [1], in the assay with Saccharomyces cerevisiae [2] and in the assay on Saccharomyces cerevisiae [3] were -0.0335, -0.3285 and -0.0662, respectively.
In the same order, the values of `O=C(Nc1ccc(F)c(Cl)c1)Nc1ccc(Cl)c(Cl)c1` are -0.0686, -0.9478 and 0.0832.
In the same order, the values of `Oc1ccc2ccccc2c1CNc1nc2ccccc2[nH]1` are -0.0053, -0.0356 and -0.1179.
For `Cc1ccc(F)cc1NC(=O)c1cc(Cl)ccc1Nc1ccccc1` the same measures were -0.0355, 0.1227 and -0.0972.
As to `Cc1sc2ncnc(Sc3nc4ccccc4[nH]3)c2c1C`, the entries for the “Relative Growth” value in the assay with Saccharomyces cerevisiae [1], in the assay on Saccharomyces cerevisiae [2] and in the assay on Saccharomyces cerevisiae [3] were 0.0241, 0.0545 and 0.0477, respectively.
In the case of `OCCNc1nc(Nc2ccc(Cl)c(Cl)c2)nc2ccccc12`, the entries for the “Relative Growth” value in the assay on Saccharomyces cerevisiae [1], in the assay with Saccharomyces cerevisiae [2] and in the assay with Saccharomyces cerevisiae [3] were 0.0231, 0.0602 and -0.1441, respectively.
In the same order, the values of `COc1ccccc1N1C(=N)SC(=Cc2ccc(OCc3ccccc3F)cc2)C1=O` are 0.0323, -0.0753 and 0.0037.
In the same order, the values of `COc1ccc(-c2nc3cc(Cc4ccc5[nH]c(-c6ccc(OC)cc6)nc5c4)ccc3[nH]2)cc1` are -0.0264, 0.0241 and 0.0862.
In the same order, the values of `COc1ccc2nc(C)cc(Nc3ccccc3O)c2c1` are -0.0232, -0.0329 and 0.0332.
Take `COc1ccc(Nc2nc(N/N=C/c3ccc(O)cc3)nc(Nc3ccc([N+](=O)[O-])cc3)n2)cc1`: the “Relative Growth” value in the assay on Saccharomyces cerevisiae [1] is on record as 0.0149; in the assay on Saccharomyces cerevisiae [2], 0.0812; in the assay on Saccharomyces cerevisiae [3] it was 0.2735.
In the same order, the values of `COc1ccc(CCNC(=O)c2cc(S(=O)(=O)N3CC(C)CC(C)C3)ccc2Sc2ccc(F)cc2)cc1OC` (stereo not given) are -0.1625, -0.0984 and -0.1001.
In the same order, the values of `O=C(NCC1Cc2cccc(-c3ccncc3)c2O1)c1csc2c1CCCC2` (stereo not given) are 0.0158, 0.1029 and 0.0203.
For `COc1ccc(NC(=O)C2c3ccccc3C(=O)N(CC(C)C)C2c2cccs2)cc1` (stereo not given) the same measures were -0.1052, -0.1656 and 0.0442.
As to `Br.CCN(CC)S(=O)(=O)c1ccc(-c2csc(Nc3ccc(C)c(C)c3)n2)cc1`, the “Relative Growth” value in the assay with Saccharomyces cerevisiae [1] is reported as -0.1037; with Saccharomyces cerevisiae [2], -0.6715; in the assay with Saccharomyces cerevisiae [3], 0.0785.
In the same order, the values of `CC(C)(C)c1ccc(C(=O)Nc2c3c(nn2-c2cccc(Cl)c2)CSC3)cc1` are -0.0819, -0.291 and -0.3492.
For `CCOC(=O)c1cnc2ccc(OC)cc2c1Nc1ccc(N2CCN(C)CC2)cc1` the same measures were -0.0196, -0.1675 and 0.0562.
For `O=C(Nc1ccc(Cl)c(Cl)c1)Nc1ccc(Cl)c(Cl)c1` the same measures were -0.0117, 0.0859 and 0.0087.
Consider `CN(C)c1ccc(C(O)(c2ccc(N(C)C)cc2)c2ccc(N(C)C)cc2)cc1` [METHYLROSANILINE], for which the “Relative Growth” value is reported as -0.0138 with Saccharomyces cerevisiae [1], -0.4054 with Saccharomyces cerevisiae [2] and -0.0186 with Saccharomyces cerevisiae [3].
In the same order, the values of `COc1ccc2c(=O)cc(C(Cl)(Cl)Cl)oc2c1` are 0.0032, -0.0182 and 0.0555.
In the same order, the values of `CCOc1cc(Cl)c(C(C)NC(=O)c2cccc(OC)c2)cc1OCC` (stereo not given) are -0.0293, -0.0623 and -0.1186.
Consider `CC(C)(C)c1ccc2c(c1)CN(Cc1ccc(Cl)cc1)CO2`, for which the “Relative Growth” value with Saccharomyces cerevisiae [1] is listed as -0.9993; in the assay with Saccharomyces cerevisiae [2] it was -0.1101; in the assay on Saccharomyces cerevisiae [3], -0.1149.
For `Cc1cc(NC(=O)c2ccc(-c3ccccc3)cc2)no1` the same measures were -0.0826, 0.0052 and 0.0468.
For `CCOc1c(Cl)cc(CNCC(O)c2ccccc2)cc1OC` (stereo not given) the same measures were -0.0592, -0.2647 and 0.0136.
For `O=C(NCCCN1CCC(N2CCCCC2)CC1)C1=Cc2cc(Br)ccc2OC1` the same measures were -0.0702, -0.1063 and -0.0044.
For `CCc1c(C)c(=N)c2ccccc2n1C.I`, the “Relative Growth” value in the assay on Saccharomyces cerevisiae [1] is listed as -0.0391; with Saccharomyces cerevisiae [2], 0.0462; with Saccharomyces cerevisiae [3], 0.0986.
In the same order, the values of `COc1ccc(CNC2CCN(c3ccc(NC(=O)c4cccc(Cl)c4)cc3)CC2)cc1OC` are -0.0405, -0.0282 and 0.0343.
As for `Cc1cc(C)c2c(c1)OCN(Cc1ccccc1Cl)C2`, the “Relative Growth” value with Saccharomyces cerevisiae [1] was -0.0627; in the assay on Saccharomyces cerevisiae [2], -0.3214; in the assay with Saccharomyces cerevisiae [3] it was -0.0636.
As for `CCOc1ccc2c(c1)CN(Cc1ccc(Cl)cc1)CO2`, the “Relative Growth” value is recorded as -0.0457 in the assay on Saccharomyces cerevisiae [1], -0.0581 in the assay on Saccharomyces cerevisiae [2] and -0.0363 in the assay on Saccharomyces cerevisiae [3].
As to `c1ccc2cc3c(Nc4ccc(N5CCOCC5)cc4)ccnc3cc2c1`, the entries for the “Relative Growth” value with Saccharomyces cerevisiae [1], in the assay on Saccharomyces cerevisiae [2] and with Saccharomyces cerevisiae [3] were 0.0179, 0.2097 and 0.0841, respectively.
For the compound `CN(C)c1ccc(N=Cc2ccc(N3CCOCC3)cc2)cc1`, the figures for the “Relative Growth” value in the assay on Saccharomyces cerevisiae [1], in the assay on Saccharomyces cerevisiae [2] and in the assay with Saccharomyces cerevisiae [3] were -0.0781, 0.068 and 0.0616, respectively.
In the same order, the values of `O=C(CCc1ccccc1)c1ccccc1OCC(O)CN1CCCCC1` (stereo not given) are -0.6663, -0.1402 and 0.0209.
Take `O=C(NC1CCN(Cc2ccccc2)CC1)c1cc(-c2cccnc2)nc2ccc(Cl)cc12`: the “Relative Growth” value is reported as -0.0203 in the assay with Saccharomyces cerevisiae [1], 0.017 in the assay with Saccharomyces cerevisiae [2] and 0.0617 with Saccharomyces cerevisiae [3].
For `COC(=O)c1ccc(C2C3=C(O)CC(c4ccc(F)cc4)CC3=Nc3ccccc3N2C(=O)c2ccccc2)cc1` (stereo not given) the same measures were -0.0053, 0.1245 and 0.2377.
For `Nc1nc(Nc2cccc(F)c2)nc2ccccc12`, the “Relative Growth” value in the assay on Saccharomyces cerevisiae [1] is given as -0.0359; in the assay on Saccharomyces cerevisiae [2], -0.012; in the assay with Saccharomyces cerevisiae [3], -0.0889.
`CCCCNCC(O)(c1ccc(Cl)cc1)c1ccc(Cl)cc1`: the “Relative Growth” value is 0.0298 with Saccharomyces cerevisiae [1], -0.1782 in the assay with Saccharomyces cerevisiae [2] and -0.2198 with Saccharomyces cerevisiae [3].
In the same order, the values of `CCOc1cc2c(cc1OCC)C(c1cc(OC)c(O)cc1Cl)NCC2` (stereo not given) are -0.0054, 0.0748 and 0.0876.
In the case of `CCN(CC)CCNc1ncnc2c1[nH]c1ccc(Cl)cc12`, the “Relative Growth” value is listed as -0.0494 in the assay on Saccharomyces cerevisiae [1], 0.0317 in the assay on Saccharomyces cerevisiae [2] and 0.0885 in the assay with Saccharomyces cerevisiae [3].
For `O=C(Nc1ccc(Cl)cc1)N1CCN(c2ccc3nncn3n2)CC1` the same measures were 0.0021, 0.053 and -0.0344.
For `COc1ccc(N2CCN(C(CNC(=O)C3CCCCC3)c3ccc4c(c3)OCO4)CC2)cc1` (stereo not given) the same measures were -0.0299, -0.124 and -0.0986.
For `CCOc1ccc(CN2CCN(CC(O)COc3ccc(OCC(O)CN4CCN(Cc5ccc(OCC)cc5)CC4)cc3)CC2)cc1` (stereo not given) the same measures were -0.0814, -0.2934 and -0.1042.
Take `Cc1ccc(-c2cc3c(SCC(=O)Nc4cc(C(F)(F)F)ccc4Cl)nccn3n2)cc1`: the “Relative Growth” value is given as 0.0079 in the assay with Saccharomyces cerevisiae [1], -0.0739 in the assay on Saccharomyces cerevisiae [2] and 0.117 with Saccharomyces cerevisiae [3].
For `CC1CC2=C(CC1CNCCCN(C)C)C(C)(C)CCC2` (stereo not given) the same measures were 0.0011, -0.1687 and 0.0086.
